These results are taken from publication PMC4790851, “Iminosugars Inhibit Dengue Virus Production via Inhibition of ER Alpha-Glucosidases—Not Glycolipid Processing Enzymes” (PLoS Neglected Tropical Diseases, 2016).

Structures are written as SMILES.

The target in experiment [1] is Human lysosome α-glucosidase (Homo sapiens, UniProt P10253). The experiment is described as follows: In vitro enzyme inhibition. The experiment is classed as biochemical. To be noted: concentration required to inhibit the enzyme to 50% activity; read-out: IC50.
Experiment [2] has as its system monosialodihexosylganglioside (GM3) production. The experiment is described as follows: Glycosphingolipid analysis: GM3 levels in MDMΦs by NP-HPLC. The settings on record: 48 h; for GM3 production (%): uninfected MDMΦ, normalized to untreated controls, mean ± SD, min. 3 donors. The experiment is classed as cell-based, human.
For a further experiment, the target named is Rat intestinal maltase. Briefly: In vitro enzyme inhibition, glucose release from disaccharide. The experiment is classed as biochemical. The settings on record: concentration required to inhibit the enzyme to 50% activity. On the procedure:
Inhibition of glucosidases and glycosidases was detected as previously described. Briefly, assays were performed at the optimum pH of each enzyme, and appropriate disaccharide was provided as substrate for glucosidase release assays. Release of D-glucose was measured using a Glucose B-test (Wako Diagnostics). Appropriate p-nitrophenyl glycoside was added as substrate for additional glycosidase assays, and assays were stopped by adding 400 mM Na2CO3. Release of p-nitrophenol was measured spectrophotometrically at 400 nm.

For the next experiment, the target named is T1, ER α-glucosidase II (Homo sapiens, UniProt Q14697).
T1 construct: endogenous in cells; host or cells: primary human monocyte-derived macrophages (MDMΦ)
T1 sequence (Q14697 29-944): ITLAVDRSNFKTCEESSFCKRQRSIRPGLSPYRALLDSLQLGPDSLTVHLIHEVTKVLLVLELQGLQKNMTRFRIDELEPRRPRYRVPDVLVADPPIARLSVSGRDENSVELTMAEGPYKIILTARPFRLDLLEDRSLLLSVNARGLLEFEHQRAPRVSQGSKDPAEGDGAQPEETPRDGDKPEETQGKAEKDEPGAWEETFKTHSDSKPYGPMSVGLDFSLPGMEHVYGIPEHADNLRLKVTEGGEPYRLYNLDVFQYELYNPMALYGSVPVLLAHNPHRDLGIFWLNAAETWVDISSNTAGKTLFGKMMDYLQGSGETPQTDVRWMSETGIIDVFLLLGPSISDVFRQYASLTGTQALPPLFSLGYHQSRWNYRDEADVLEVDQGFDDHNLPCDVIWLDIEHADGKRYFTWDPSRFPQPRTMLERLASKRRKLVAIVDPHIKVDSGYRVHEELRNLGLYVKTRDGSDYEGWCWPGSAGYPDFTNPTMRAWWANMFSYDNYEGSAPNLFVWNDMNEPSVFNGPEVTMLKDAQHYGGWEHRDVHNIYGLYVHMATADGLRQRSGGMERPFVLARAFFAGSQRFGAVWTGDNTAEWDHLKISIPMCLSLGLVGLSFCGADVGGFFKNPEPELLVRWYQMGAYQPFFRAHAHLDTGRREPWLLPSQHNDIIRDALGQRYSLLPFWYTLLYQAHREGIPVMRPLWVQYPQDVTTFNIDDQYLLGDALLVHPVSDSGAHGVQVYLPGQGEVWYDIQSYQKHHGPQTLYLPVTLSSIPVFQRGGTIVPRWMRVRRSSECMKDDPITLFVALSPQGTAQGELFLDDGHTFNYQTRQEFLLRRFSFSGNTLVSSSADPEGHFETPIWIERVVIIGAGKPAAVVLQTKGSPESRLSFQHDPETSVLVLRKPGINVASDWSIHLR
T1 sequence (P14314 15-528 partner): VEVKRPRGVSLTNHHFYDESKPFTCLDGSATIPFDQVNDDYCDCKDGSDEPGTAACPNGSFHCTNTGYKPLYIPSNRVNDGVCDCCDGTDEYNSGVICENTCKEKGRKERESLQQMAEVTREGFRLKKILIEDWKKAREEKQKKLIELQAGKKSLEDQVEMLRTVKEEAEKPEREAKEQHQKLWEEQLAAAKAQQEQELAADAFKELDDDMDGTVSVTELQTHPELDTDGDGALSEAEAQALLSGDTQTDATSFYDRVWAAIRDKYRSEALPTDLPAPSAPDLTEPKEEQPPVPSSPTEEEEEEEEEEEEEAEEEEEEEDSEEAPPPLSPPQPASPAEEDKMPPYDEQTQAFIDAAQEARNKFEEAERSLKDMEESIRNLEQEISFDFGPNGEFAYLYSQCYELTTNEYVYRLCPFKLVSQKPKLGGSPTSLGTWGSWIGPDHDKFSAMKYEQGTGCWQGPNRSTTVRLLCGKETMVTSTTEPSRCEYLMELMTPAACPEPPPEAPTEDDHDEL
Briefly: Free oligosaccharide analysis in MDMΦs: Glc1Man4GlcNAc1. Type of experiment: cell-based. To be noted: 48 h; for accumulation of Glc1Man4GlcNAc1: 1 μM, MDMΦs, all donors; for FOS representative of ER α-glucosidase II inhibition (Glc1Man4GlcNAc1): MNTD of iminosugar (NB-DNJ 100 μM), uninfected MDMΦs.

Experiment [3] concerns the target T2, Rat intestinal isomaltase (Rattus norvegicus, UniProt P23739).
T2 construct: from tissue; host or cells: rat intestine
Briefly: In vitro enzyme inhibition, glucose release from disaccharide. The experiment is classed as biochemical. The settings on record: concentration required to inhibit the enzyme to 50% activity; read-out: IC50.

In the next experiment the target is T3, Rat intestinal sucrase (Rattus norvegicus, UniProt P23739).
T3 construct: from tissue; host or cells: rat intestine
T3 sequence (P23739 whole entry): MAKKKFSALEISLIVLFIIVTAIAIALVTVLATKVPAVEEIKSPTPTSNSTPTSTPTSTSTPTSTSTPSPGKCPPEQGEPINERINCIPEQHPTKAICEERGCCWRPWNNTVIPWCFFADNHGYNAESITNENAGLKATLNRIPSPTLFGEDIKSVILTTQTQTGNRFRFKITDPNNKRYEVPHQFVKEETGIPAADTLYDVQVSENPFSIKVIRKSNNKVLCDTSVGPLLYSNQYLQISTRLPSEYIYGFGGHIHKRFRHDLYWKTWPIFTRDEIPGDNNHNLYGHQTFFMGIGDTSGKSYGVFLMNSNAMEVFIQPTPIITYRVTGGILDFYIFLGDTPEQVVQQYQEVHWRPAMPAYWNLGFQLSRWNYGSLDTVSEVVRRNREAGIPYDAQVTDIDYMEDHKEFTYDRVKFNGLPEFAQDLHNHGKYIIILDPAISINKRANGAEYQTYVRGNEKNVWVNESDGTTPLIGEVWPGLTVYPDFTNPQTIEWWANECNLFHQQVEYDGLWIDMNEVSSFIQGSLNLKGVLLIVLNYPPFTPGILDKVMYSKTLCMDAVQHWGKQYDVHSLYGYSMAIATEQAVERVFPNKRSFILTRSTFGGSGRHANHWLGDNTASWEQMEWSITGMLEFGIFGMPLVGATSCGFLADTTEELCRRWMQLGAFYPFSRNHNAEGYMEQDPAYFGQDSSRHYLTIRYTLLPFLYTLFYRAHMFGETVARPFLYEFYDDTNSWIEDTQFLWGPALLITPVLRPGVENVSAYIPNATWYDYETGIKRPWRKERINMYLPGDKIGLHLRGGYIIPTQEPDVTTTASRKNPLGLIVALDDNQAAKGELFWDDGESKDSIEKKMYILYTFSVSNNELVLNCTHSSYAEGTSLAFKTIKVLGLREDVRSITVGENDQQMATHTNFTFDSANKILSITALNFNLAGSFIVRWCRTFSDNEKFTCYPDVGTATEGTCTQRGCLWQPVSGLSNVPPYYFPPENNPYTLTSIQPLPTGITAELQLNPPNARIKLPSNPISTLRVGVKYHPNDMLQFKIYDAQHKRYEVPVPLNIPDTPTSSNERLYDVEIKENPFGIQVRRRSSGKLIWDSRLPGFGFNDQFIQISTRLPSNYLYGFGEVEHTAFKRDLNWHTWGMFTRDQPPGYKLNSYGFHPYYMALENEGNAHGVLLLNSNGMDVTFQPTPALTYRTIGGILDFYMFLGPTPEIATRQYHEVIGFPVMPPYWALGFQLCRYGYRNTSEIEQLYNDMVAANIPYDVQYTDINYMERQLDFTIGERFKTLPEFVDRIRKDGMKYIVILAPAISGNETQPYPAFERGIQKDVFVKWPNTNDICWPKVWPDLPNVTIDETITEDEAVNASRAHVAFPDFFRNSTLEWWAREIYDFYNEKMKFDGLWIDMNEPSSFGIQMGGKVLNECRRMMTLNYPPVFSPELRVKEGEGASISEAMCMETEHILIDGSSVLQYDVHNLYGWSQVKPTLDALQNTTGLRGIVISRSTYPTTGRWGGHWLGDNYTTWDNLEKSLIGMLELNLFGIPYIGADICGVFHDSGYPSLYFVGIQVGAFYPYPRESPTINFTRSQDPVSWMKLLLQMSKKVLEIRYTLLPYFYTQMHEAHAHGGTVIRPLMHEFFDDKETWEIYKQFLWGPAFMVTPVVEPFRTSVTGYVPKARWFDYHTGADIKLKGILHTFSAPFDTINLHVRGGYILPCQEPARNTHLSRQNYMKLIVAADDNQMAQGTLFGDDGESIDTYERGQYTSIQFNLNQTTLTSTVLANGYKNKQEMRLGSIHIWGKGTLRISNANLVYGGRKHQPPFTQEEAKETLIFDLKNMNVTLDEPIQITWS
The experiment is described as above. The experiment is classed as biochemical. The settings on record: concentration required to inhibit the enzyme to 50% activity; read-out: IC50.

T2 sequence (P23739 whole entry): as above

The IC50 is the midpoint of a concentration-inhibition curve. With `CCCC(=O)O[C@H]1CN2CC[C@H](O)[C@@H]2[C@@H](O)[C@@H]1O` [Celgosivir, 6-O-butanoyl-castanospermine], the half-inhibitory concentration (IC50) in experiment [1] was found to be 93.2 µM; on Rat intestinal maltase, 17 µM; in experiment [3], 29.3 µM; on Rat intestinal sucrase, 2.7 µM. Further, the “GM3 production (%)” value in experiment [2] (100 μM (MNTD)) was determined as 100.9 ± 4.1%. The “accumulation of Glc1Man4GlcNAc1” value on ER α-glucosidase II is “led to accumulation of Glc1Man4GlcNAc1”.

In the case of `CCCCN1C[C@H](O)[C@@H](O)[C@@H](O)[C@H]1CO` [NB-DGJ], the IC50 (in experiment [1]; against Rat intestinal maltase; in experiment [3]; at Rat intestinal sucrase) was greater than 1000 µM each time. For the same compound, in experiment [2] (100 μM (MNTD)), the “GM3 production (%)” value is 7.3 ± 1.9%. In addition, the “FOS representative of ER α-glucosidase II inhibition (Glc1Man4GlcNAc1)” value on ER α-glucosidase II was “fail to produce detectable ER α-glucosidase associated FOS”.

By inhibition is commonly meant the percentage by which the read-out fell short of the control. Usually EC50 stands for the concentration that produces a half-maximal response. `CCCCN1C[C@H](O)[C@@H](O)[C@H](O)[C@H]1CO` [NB-DNJ, N-butyl-DNJ]: the IC50 came to 0.27 µM in experiment [1], 1.1 µM on Rat intestinal maltase and 0.44 µM on Rat intestinal sucrase. The “GM3 production (%)” value in experiment [2] (100 μM (MNTD)) stood at 8.8 ± 3.6%. This compound also yielded an inhibition at 10 µM in experiment [2] (Homo sapiens, 10 μM, MDMΦs) of 90 to 95%. For the same compound, the EC50 in experiment [2] (Homo sapiens, titration 1 to 100 μM, three donors, read-out: 95% CI for GM3 EC50) lay in the range of 0.8 to 1.37 µM. For the same compound, the “accumulation of Glc1Man4GlcNAc1” value on ER α-glucosidase II is on record as “led to accumulation of Glc1Man4GlcNAc1”. In addition, on ER α-glucosidase II, the “FOS representative of ER α-glucosidase II inhibition (Glc1Man4GlcNAc1)” value was “accumulation of peaks representative of inhibition of both α-glucosidases”.

Consider `CCCCCCCCCN1C[C@H](O)[C@@H](O)[C@@H](O)[C@H]1CO` [NN-DGJ], for which the IC50 (in experiment [1]; against Rat intestinal maltase; in experiment [3]; at Rat intestinal sucrase) was greater than 1000 µM throughout. For the same compound, the “GM3 production (%)” value in experiment [2] (31.6 μM (MNTD)) stood at 4.9 ± 1.9%.
